# Like-named read-outs stand apart in the source and are kept apart here.
# How the values were obtained:
# human CB2 receptor = target: T1, human CB2 receptor (Homo sapiens, UniProt P34972); assay: CB2 receptor affinity ([3H]-CP-55,940 displacement); format: binding; settings: HEK cell membranes, radioligand [3H]-CP-55,940
# T1 construct: expressed in transfected cells; host or cells: human embryonic kidney (HEK) cells, Semliki Forest Virus system, membrane preparation
# Description: (§1) The affinity of the compounds of the invention for cannabinoid CB2 receptors was determined using membrane preparations of human embryonic kidney (HEK) cells in which the human CB2 receptor is transiently transfected using a Semliki Forest Virus system in conjunction with [^3H]-CP-55,940 as radioligand. After incubation of freshly prepared cell membrane preparation with the [^3H]-ligand, with or without addition of compounds of the invention, separation of bound and free ligand was performed by filtration over glass fiber filters. Radioactivity on the filter was measured by scintillation counting.
# (§2) The ability of the compounds to displace the radioligand [^3H]-CP-55,940 was measured at a concentration of 10 μM and values provided as [% inhibition @ 10 μM] both for the CB 1 and CB2 receptor assay, The lower % inhibition is, the lower the likelihood of side effects based on CB1 or CB2 receptor inhibition is.
# human CB1 receptor = target: T2, human CB1 receptor (Homo sapiens, UniProt P21554); assay: CB1 receptor affinity ([3H]-CP-55,940 displacement); format: binding; settings: read-out: CB1 receptor affinity [% inhibition @ 10 μM]
# T2 construct: expressed in transfected cells; host or cells: human embryonic kidney (HEK) cells, Semliki Forest Virus system, membrane preparation
# T2 sequence (P21554 whole entry): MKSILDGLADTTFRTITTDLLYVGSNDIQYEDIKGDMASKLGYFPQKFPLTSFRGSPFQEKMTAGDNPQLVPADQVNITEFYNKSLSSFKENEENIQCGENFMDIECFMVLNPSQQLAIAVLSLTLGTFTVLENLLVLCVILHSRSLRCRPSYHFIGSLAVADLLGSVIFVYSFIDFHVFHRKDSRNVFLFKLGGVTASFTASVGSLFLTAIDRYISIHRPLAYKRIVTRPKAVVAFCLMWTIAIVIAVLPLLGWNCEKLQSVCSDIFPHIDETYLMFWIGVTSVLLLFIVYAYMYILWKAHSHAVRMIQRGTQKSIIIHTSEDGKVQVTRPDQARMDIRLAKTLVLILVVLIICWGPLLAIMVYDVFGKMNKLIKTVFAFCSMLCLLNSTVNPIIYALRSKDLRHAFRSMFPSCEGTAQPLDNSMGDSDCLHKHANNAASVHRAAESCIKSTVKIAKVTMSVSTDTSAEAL
# Description: as §1, with “cannabinoid” for “cannabinoid CB2”, “CB1” for “CB2”, “[3H]-CP-55,940” for “[^3H]-CP-55,940”
# as §2
# ABCA1 protein = assay: Detection of upregulation of ABCA1 protein in cells (ApoA-I binding, high content image analysis); format: cell-based; settings: THP-1 macrophage cells; for % increase of ABCA1 at 3 μM: compound at 3 μM, 24 hrs; for EC50: ABCA1 protein detection assay
# Description: The ability of compounds of the invention to increase the level of ABCA1 protein is determined in replicate cultures of THP-1 macrophage cells in 96-well microplates. Cells are plated at an initial density of 100,000 cells/well in 100 μl medium and differentiated to adherent macrophages with the addition of PMA (100 nM) for 68 hrs in 10% fetal bovine serum, 3 μl/L of b-mercaptoethanol, RPMI-1640 medium. Then, cells are incubated with RPMI-1640 medium containing 1% FCS, 25 μg/ml acetylated LDL, for 24 hours at 37°. Following incubation with acetylated LDL, cells are washed twice with 50 μl PBS and incubated with 100 μl of RPMI-1640 medium containing the compound of interest solubilized in DMSO for an additional 24 hrs. The final DMSO concentration in presence of cells is maintained at 0.5%. ApoA-I binding assay using High Content Image Analysis is initiated by replacing with fresh medium, RPMI without Phenol Red, 0.2% BSA containing AlexaFluor®647 labeled ApoA-I for 2 h/37° C./5% CO2. Then, cells are fixed with 4% Formaldehyde in PBS (15 min, RT). Following Nuclei are stained with Hoechst solution (3 μM PBS) and Cytoplasm with Cell Mask Blue (2 μg/ml PBS), 15 min, RT. Finally the stained cells are fixed with a second round of formaldehyde treatment. Fixed stained cells are washed and kept in PBS at 4° C. and can be read immediately until one month after preparation.
# The Alexa Fluor 647-labeled Apolipoprotein A-I (20 nM) was prepared as follows: Human recombinant Apolipoprotein A-I (ApoA-I) was exchanged to a buffer of 0.02 M NaHCO3 at pH 8.2 on an NAP desalting column (GE Healthcare) and brought to a concentration to 40 μM (1.13 mg/ml) by adjustment with the same buffer. The ApoA-I was fluorescently labeled by incubation with Alexa Fluor carboxylic acid succimidyl ester (Alexa Fluor 647, Invitrogen A-20006) at a 2:1 molar ratio (Alexa to ApoA-I) for 1 h under shaking at RT). The remaining unconjugated label was removed by buffer exchange to 0.02M NaHCO3 at pH 8.2.
# Imaging and data collection were performed on an OPERA confocal microplate imaging reader using a 20× water immersion objective and UV360 or 405 laser to identify the cell nuclei and a 635 laser to identify the fluorescent ApoA-I. Eight fields of view are captured per well. Image capture and analysis was performed with the Acapella software. Background fluorescence detected in control wells without ApoA-I was subtracted.
# Using XLfit3 program (ID Business Solutions Ltd. UK), the model 205 for Dose Response One Site is used to calculate the EC50 values. […] Particularly, the compounds of the present invention have EC50 values in a range of 0.1 μM to 3 μM.
# [1] = 10 μM, HEK cell membranes, radioligand [3H]-CP-55,940
# T1 sequence (P34972 whole entry): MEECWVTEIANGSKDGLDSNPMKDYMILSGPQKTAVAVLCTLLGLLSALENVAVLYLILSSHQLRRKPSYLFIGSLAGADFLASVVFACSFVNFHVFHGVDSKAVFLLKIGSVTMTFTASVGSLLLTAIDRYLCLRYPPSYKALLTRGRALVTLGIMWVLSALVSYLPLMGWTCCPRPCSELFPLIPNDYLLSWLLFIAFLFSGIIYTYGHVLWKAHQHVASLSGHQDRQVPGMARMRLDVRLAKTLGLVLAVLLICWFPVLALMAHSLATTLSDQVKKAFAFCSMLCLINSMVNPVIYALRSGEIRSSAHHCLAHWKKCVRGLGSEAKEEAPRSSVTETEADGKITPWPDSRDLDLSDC
inhibition at 10 µM (human CB2 receptor) [%],inhibition at 10 µM (human CB1 receptor; [1]) [%],melting point [°C],Structure (SMILES),% increase of ABCA1 at 3 μM (ABCA1 protein) [% @ 3 μM],EC50 (ABCA1 protein) [µM],inhibition at 10 µM (human CB1 receptor) [%]
23.2,32,124 to 126,"CO/N=C(/CNC(=O)c1cnc(OCC(F)(F)F)c(-c2ccc(Cl)c(Cl)c2)c1)C(F)(F)F [Example 15, 5-(3,4-Dichloro-phenyl)-6-(2,2,2-trifluoro-ethoxy)-N-{3,3,3-trifluoro-2-[(Z)-methoxyimino]-propyl}-nicotinamide]",50.5,–,–
33,35.5,123 to 125,"CO/N=C1\CCCC[C@@H]1NC(=O)c1cc(-c2ccc(Cl)cc2)c(O[C@@H](C)C(F)(F)F)cn1 [Example 29, 4-(4-Chlorophenyl)-N-((S,E)-2-(methoxyimino)cyclohexyl)-5-((S)-1,1,1-trifluoropropan-2-yloxy)picolinamide]",53.4,–,–
18,34.4,180 to 182,"CO/N=C1\CCCC[C@@H]1NC(=O)c1ncc(O[C@@H](C)C(F)(F)F)c(-c2ccc(Cl)cc2)n1 [Example 28, 4-(4-Chlorophenyl)-N-((S,E)-2-(methoxyimino)cyclohexyl)-5-((S)-1,1,1-trifluoropropan-2-yloxy)pyrimidine-2-carboxamide]",86.5,0.78,–
9,13,149 to 152,"CO/N=C(/CNC(=O)c1cnc(O[C@@H](C)C(F)(F)F)c(-c2ccc(Cl)cc2)n1)C1CC1 [Example 26, (S,E)-6-(4-Chlorophenyl)-N-(2-cyclopropyl-2-(methoxyimino)ethyl)-5-(1,1,1-trifluoropropan-2-yloxy)pyrazine-2-carboxamide]",79,1.12,–
37.6,15.9,–,"CO/N=C1\CCCC[C@@H]1NC(=O)c1cc(-c2ccc(Cl)cc2)c(OCC(F)(F)F)cn1 [Example 9, 4-(4-Chloro-phenyl)-5-(2,2,2-trifluoro-ethoxy)-pyridine-2-carboxylic acid {(S)-2-[(E)-methoxyimino]-cyclohexyl}-amide]",71.7,–,–
21,21,120 to 123,"CO/N=C1\CCCC[C@@H]1NC(=O)c1cnc(O[C@@H](C)C(F)(F)F)c(-c2ccc(Cl)cc2)n1 [Example 27, 6-(4-Chlorophenyl)-N-((S,E)-2-(methoxyimino)cyclohexyl)-5-((S)-1,1,1-trifluoropropan-2-yloxy)pyrazine-2-carboxamide]",65,–,–
44.3,30,–,"O=C(NC/C(=N/O)C1CC1)c1cnc(OCC(F)(F)F)c(-c2ccc(Cl)c(Cl)c2)c1 [Example 11, N-(E)-(2-Cyclopropyl-2-hydroxyimino-ethyl)-5-(3,4-dichloro-phenyl)-6-(2,2,2-trifluoro-ethoxy)-nicotinamide]",55.9,–,–
63.8,28,–,"CO/N=C(\CNC(=O)c1ncc(OCC2CC2)c(-c2ccc(Cl)cc2)n1)C1CC1 [Example 19, 4-(4-Chloro-phenyl)-5-cyclopropylmethoxy-pyrimidine-2-carboxylic acid {2-cyclopropyl-2-[(Z)-methoxyimino]-ethyl}-amide]",84.2,–,–
14,-2,147 to 150,"CO/N=C(/CNC(=O)c1cc(-c2ccc(Cl)c(Cl)c2)c(OCC(F)(F)F)nn1)C1CC1 [Example 23, (E)-N-(2-cyclopropyl-2-(methoxyimino)ethyl)-5-(3,4-dichlorophenyl)-6-(2,2,2-trifluoroethoxy)pyridazine-3-carboxamide]",88,0.54,–
31,22,106 to 109,"CO/N=C1\CCCC[C@@H]1NC(=O)c1cc(-c2ccc(Cl)c(Cl)c2)c(OCC(F)(F)F)nn1 [Example 24, 5-(3,4-Dichloro-phenyl)-6-(2,2,2-trifluoro-ethoxy)-pyridazine-3-carboxylic acid {(S)-2-[(E)-methoxyimino]-cyclohexyl}-amide]",85,–,–
19.2,0.74,–,"CO/N=C1\CCCC[C@@H]1NC(=O)c1ccc(OCC(F)(F)F)c(-c2ccc(Cl)cc2)n1 [Example 10, 6-(4-Chloro-phenyl)-5-(2,2,2-trifluoro-ethoxy)-pyridine-2-carboxylic acid {(S)-2-[(E)-methoxyimino]-cyclohexyl}-amide]",45.6,1.53,–
31,41,–,"CO/N=C(/CNC(=O)c1ccc(OCC(F)(F)F)c(-c2ccc(Cl)cc2)n1)C(F)(F)F [Example 21, 6-(4-Chloro-phenyl)-5-(2,2,2-trifluoro-ethoxy)-pyridine-2-carboxylic acid {3,3,3-trifluoro-2-[(Z)-methoxyimino]-propyl}-amide]",50,–,–
12.7,24.1,119 to 121,"CO/N=C1\CCCC[C@@H]1NC(=O)c1cnc(O[C@@H](C)C(F)(F)F)c(-c2ccc(Cl)cc2)c1 [Example 30, 5-(4-Chlorophenyl)-N-((S,E)-2-(methoxyimino)cyclohexyl)-6-((S)-1,1,1-trifluoropropan-2-yloxy)nicotinamide]",91.3,0.18,–

Structure (SMILES),inhibition at 10 µM (human CB2 receptor) [%],inhibition at 10 µM (human CB1 receptor; [1]) [%],melting point [°C],% increase of ABCA1 at 3 μM (ABCA1 protein) [% @ 3 μM],EC50 (ABCA1 protein) [µM],inhibition at 10 µM (human CB1 receptor) [%]
"CO/N=C(/CNC(=O)c1cnc(O[C@@H](C)C(F)(F)F)c(-c2ccc(Cl)cc2)c1)C1CC1 [Example 31, 5-(4-Chloro-phenyl)-N-{2-cyclopropyl-2-[(E)-methoxyimino]-ethyl}-6-((S)-2,2,2-trifluoro-1-methyl-ethoxy)-nicotinamide]",3.6,–,103 to 106,74.5,–,39.3

# Source: patent US8669254B2, “Pyridine, pyridazine, pyrimidine or pyrazine carboxamides as HDL-cholesterol raising agents” (Hoffman-La Roche Inc., priority 2010, dated 2014)
